Like-named read-outs stand apart in the source and are kept apart here.
Legend:
Assay in all cases: Activity against cancer cell lines
Assay type in all cases: cell-based
SF295 = details: Homo sapiens, SF-295
Excerpt: (§1) Exemplary data is shown below.

ACHN = details: Homo sapiens
Excerpt: as §1

SNB75 = tested on: SNB75
Excerpt: as §1

HL60 = tested on: HL60
Excerpt: as §1

SKMEL5 = details: Homo sapiens, SK-MEL-5
Excerpt: as §1

ADRRES = tested on: ADRRES
Excerpt: as §1

M14 = details: Homo sapiens
Excerpt: as §1

MCF7 = details: Homo sapiens
Excerpt: as §1

RXF393 = details: Homo sapiens, RXF 393
Excerpt: as §1

MOLT4 = details: Homo sapiens, MOLT-4
Excerpt: as §1

SKMEL2 = details: Homo sapiens, SK-MEL-2
Excerpt: as §1

HCT15 = details: Homo sapiens, HCT-15
Excerpt: as §1

LOXIMVI = details: Homo sapiens, LOX IMVI
Excerpt: as §1

OVCAR4 = tested on: OVCAR4
Excerpt: as §1

NCIH522 = details: Homo sapiens, NCI-H522
Excerpt: as §1

SF539 = details: Homo sapiens, SF-539
Excerpt: as §1

MDAMB435 = details: Homo sapiens, MDA-MB-435
Excerpt: as §1

CAKI1 = details: Homo sapiens, CAKI-1
Excerpt: as §1

A498 = details: Homo sapiens
Excerpt: as §1

CCRFCEM = tested on: CCRFCEM
Excerpt: as §1

UO31 = details: Homo sapiens, UO-31
Excerpt: as §1

**Q.** With `COc1cccc2c1C(=O)c1c(O)c3c(c(O)c1C2=O)C[C@@](O)(C(=O)CO)C[C@@H]3O[C@H]1C[C@H](N)[C@H](O)[C@H](C)O1` [Doxorubicin, reference compound] as the compound, how does the IC50 (SF295) read?
**A.** The IC50 was 430 nM.

**Q.** And the IC50 (ACHN)?
**A.** Its IC50 is 540 nM.

**Q.** And the IC50 (SNB75; Homo sapiens, SNB-75, SNB75)?
**A.** Its IC50 is 610 nM.

**Q.** What about the IC50 (SNB75; SNB75) of the same compound?
**A.** The IC50 was 580 nM.

**Q.** And the IC50 (HL60; HL60)?
**A.** Its IC50 is 130 nM.

**Q.** And the IC50 (HL60; Homo sapiens, HL-60, HL60)?
**A.** Its IC50 is 150 nM.

**Q.** And the IC50 (SKMEL5)?
**A.** Its IC50 is 390 nM.

**Q.** And the IC50 (ADRRES)?
**A.** The IC50 was 11000 nM.

**Q.** What about the IC50 (M14) of the same compound?
**A.** Its IC50 is 810 nM.

**Q.** What about the IC50 (MCF7) of the same compound?
**A.** Its IC50 is 410 nM.

**Q.** And the IC50 (RXF393)?
**A.** The IC50 was 1000 nM.

**Q.** What about the IC50 (MOLT4) of the same compound?
**A.** The IC50 was 75 nM.

**Q.** And the IC50 (SKMEL2)?
**A.** Its IC50 is 680 nM.

**Q.** What about the IC50 (HCT15) of the same compound?
**A.** The IC50 was 1300 nM.

**Q.** And the IC50 (LOXIMVI)?
**A.** Its IC50 is 260 nM.

**Q.** What about the IC50 (OVCAR4; Homo sapiens, OVCAR-4, OVCAR4) of the same compound?
**A.** Its IC50 is 1900 nM.

**Q.** And the IC50 (OVCAR4; OVCAR4)?
**A.** Its IC50 is 1500 nM.

**Q.** And the IC50 (NCIH522)?
**A.** Its IC50 is 500 nM.

**Q.** And the IC50 (SF539)?
**A.** Its IC50 is 390 nM.

**Q.** What about the IC50 (MDAMB435) of the same compound?
**A.** Its IC50 is 970 nM.

**Q.** And the IC50 (CAKI1)?
**A.** Its IC50 is 180 nM.

**Q.** What about the IC50 (A498) of the same compound?
**A.** Its IC50 is 650 nM.

**Q.** And the IC50 (CCRFCEM)?
**A.** The IC50 was 87 nM.

**Q.** And the IC50 (CCRFCEM; Homo sapiens, CCRF-CEM)?
**A.** The IC50 was 47 nM.

**Q.** And the IC50 (UO31)?
**A.** The IC50 was 2500 nM.

From patent publication US10000451B2, “MAP4K4 (HGK) inhibitors” (SRI INTERNATIONAL, priority 2015, dated 2018)
